Broadly, the GI50 is the concentration giving 50% growth inhibition.

Molecules are shown by their SMILES.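 48-hour exposure; five concentrations; linearly interpolated endpoints. At the GI50, growth is halved.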 Active and inactive are the calls of the source. Cut-off read from the data, not from the text of the source: active = GI50 up to about 1.1 µM and inactive = higher.

Assay in all cases: DTP human tumour cell line panel, 48 h
The subject of experiment [1] is HCT-15.
Experiment [2] relates to SNB-75.
In experiment [3] the test system is T47D.
The test system of experiment [4] is ACHN.
In experiment [5] the test system is MDA-MB-231.
Experiment [6] relates to BT-549.
For experiment [7], the system named is SK-MEL-5.
Experiment [8] concerns NCI-H23.
In experiment [9] the test system is HOP-92.
Experiment [10] has as its system NCI-H460.
In experiment [11] the test system is NCI/ADR-RES.
Experiment [12] deals with SF-268.
The test system of experiment [13] is Malme-3M.
The test system of experiment [14] is HOP-62.
Experiment [15] relates to CCRF-CEM.
The subject of experiment [16] is SN12C.
Experiment [17] has as its system IGROV-1.
For experiment [18], the system named is DU-145.
The test system of experiment [19] is SK-MEL-28.
Experiment [20] relates to MDA-MB-435.

For `O=S(=O)([N-]c1nc2ccccc2nc1-[n+]1ccccc1)c1ccccc1`, the GI50 was above 100 µM in [1]; > 100 µM (inactive) in experiment [2]; 81.8 µM (inactive) in [3]; > 100 µM (inactive) in [4]; 28.9 µM (inactive) in [5]; 20.8 µM (inactive) in experiment [6]. In addition, the GI50 is > 100 µM (inactive) in experiment [7]; 67.8 µM (inactive) in experiment [8]; > 100 µM (inactive) in experiment [9]; > 100 µM (inactive) in [10]; > 100 µM (inactive) in experiment [11]; > 100 µM (inactive) in [12]. Besides, the GI50 in experiment [13] was > 100 µM (inactive); in experiment [14] it was 46.1 µM (inactive); in experiment [15], 10.8 µM (inactive); in experiment [16], > 100 µM (inactive); in experiment [17] it was > 100 µM (inactive).
Take `O=C(O)c1oc(C(=O)O)c(C(=O)O)c1C(=O)O`: the GI50 in experiment [18] was > 100 µM (inactive); in experiment [1] it was above 100 µM; in experiment [19], > 100 µM (inactive); in [3], > 100 µM (inactive); in experiment [4], > 100 µM (inactive); in experiment [5] it was > 100 µM (inactive). Further, the GI50 in experiment [6], in [7], in experiment [8], in experiment [9], in experiment [10] and in experiment [11] was > 100 µM (inactive) each time. The GI50 in experiment [12], in [13], in experiment [14], in experiment [15], in experiment [16] and in experiment [17] was > 100 µM (inactive) in each case.
As to `CCOC(=O)C(NC(=O)NCc1ccc(F)cc1)C(F)(F)F` (stereo unspecified), the GI50 is > 100 µM (inactive) in experiment [20]; above 100 µM in experiment [1]; > 100 µM (inactive) in experiment [2]; > 100 µM (inactive) in experiment [19]; > 100 µM (inactive) in [3]; > 100 µM (inactive) in experiment [4]. The GI50 in experiment [6], in [7], in experiment [8], in experiment [11], in experiment [12] and in experiment [15] was > 100 µM (inactive) in each case. The GI50 in experiment [16] and in [17] was > 100 µM (inactive) throughout.
For `COC(=O)C1=C(C)NC(C)=C(C(=O)OC)C1c1cccc(NO)c1`, the GI50 in [18] was 22 µM (inactive); in [20], 16.8 µM (inactive); in [1] it was 19.3 µM; in [19], 15.1 µM (inactive); in [3] it was 13.5 µM (inactive); in experiment [4] it was 12.8 µM (inactive). For the same compound, the GI50 is 16.6 µM (inactive) in experiment [5]; 18.4 µM (inactive) in experiment [6]; 15.5 µM (inactive) in experiment [7]; 16.3 µM (inactive) in [8]; 11.5 µM (inactive) in experiment [9]; 15.1 µM (inactive) in experiment [10]. In addition, the GI50 in [11] was 20 µM (inactive); in experiment [12] it was 16.6 µM (inactive); in [13], 16.4 µM (inactive); in experiment [14], 32.3 µM (inactive); in experiment [15] it was 3.79 µM (inactive); in [16], 18.5 µM (inactive). Further, the GI50 in experiment [17] was 16.7 µM (inactive).
Turning to `CCN(CC)CCCNc1c2c(Cl)cc(Cl)cc2nc2nc(O)nc(C)c12`, the GI50 in experiment [18] was > 100 µM (inactive); in [20], 21.3 µM (inactive); in [1] it was above 100 µM; in [19] it was 30.6 µM (inactive); in [3] it was > 100 µM (inactive); in experiment [4], > 100 µM (inactive). For the same compound, the GI50 in [5] is 18.5 µM (inactive); in experiment [6], 84.5 µM (inactive); in experiment [7], 65.9 µM (inactive); in experiment [8], 55.8 µM (inactive); in experiment [9], 57.3 µM (inactive); in [10] it was 20.2 µM (inactive). Moreover, the GI50 in experiment [11] was > 100 µM (inactive); in [12], 23 µM (inactive); in [13] it was 41.6 µM (inactive); in experiment [14], 23.2 µM (inactive); in [15], 34.5 µM (inactive); in experiment [16], 25.3 µM (inactive). The GI50 in experiment [17] is 35.6 µM (inactive).
As to `O=C1c2ccccc2C(=O)N1CC1(C(=O)O)NCCS1(=O)=O` (stereo unspecified), the GI50 in experiment [20] is > 100 µM (inactive); in [1], above 100 µM; in experiment [19] it was > 100 µM (inactive); in [3], > 100 µM (inactive); in [4], > 100 µM (inactive); in experiment [5] it was > 100 µM (inactive). For the same compound, the GI50 in experiment [6], in [7], in [8], in experiment [9], in [10] and in experiment [11] was > 100 µM (inactive) each time. Besides, the GI50 in experiment [12], in [13], in [14], in experiment [15], in experiment [16] and in experiment [17] was > 100 µM (inactive) in each case.
With `CCCCC[C@H]1CC=CC(=O)O1`, the GI50 in experiment [18] was 5.83 µM (inactive); in experiment [20], 7.33 µM (inactive); in [1], 4.2 µM; in experiment [19], 7.26 µM (inactive); in experiment [3], 4.55 µM (inactive); in experiment [4], 7.13 µM (inactive). Further, the GI50 in experiment [5] is 10 µM (inactive); in experiment [6] it was 4.06 µM (inactive); in experiment [7] it was 7.78 µM (inactive); in experiment [8], 17.9 µM (inactive); in experiment [9] it was 10.4 µM (inactive); in [10] it was 5.35 µM (inactive). The GI50 in experiment [11] is 5.92 µM (inactive); in [12], 5.38 µM (inactive); in [13], 15.5 µM (inactive); in [14], 17.3 µM (inactive); in experiment [15] it was 4.74 µM (inactive); in experiment [16] it was 6.68 µM (inactive). In [17], the GI50 is 5.27 µM (inactive).
Regarding `O=C(Nc1ccc2[nH]c(C(=O)N3CC(CCl)c4ccc([N+](=O)[O-])cc43)cc2c1)c1cc2ccccc2o1` (stereo unspecified), the GI50 in [18] is > 1100 µM (inactive); in [20], > 1100 µM (inactive); in experiment [1], above 1100 µM; in experiment [19], > 1100 µM (inactive); in [3], > 1100 µM (inactive); in [5], > 1100 µM (inactive). For the same compound, the GI50 in experiment [6] was > 1100 µM (inactive); in experiment [7], > 1100 µM (inactive); in experiment [8], > 1100 µM (inactive); in experiment [9], > 1100 µM (inactive); in [10], 98.4 µM (inactive); in experiment [11], > 1100 µM (inactive). The GI50 in experiment [12], in [13], in [14], in [15], in experiment [16] and in experiment [17] was > 1100 µM (inactive) throughout.
`CC1CC(=O)Nc2cc(Cl)ccc2N1C(=O)C1CC1` (stereo unspecified): the GI50 is > 100 µM (inactive) in experiment [18]; > 100 µM (inactive) in [20]; above 100 µM in [1]; > 100 µM (inactive) in experiment [19]; > 100 µM (inactive) in [3]; > 100 µM (inactive) in experiment [4]. The GI50 in experiment [5], in experiment [6], in experiment [7], in experiment [8], in experiment [9] and in [10] was > 100 µM (inactive) each time. In addition, the GI50 in experiment [12], in experiment [13], in [14], in [15], in experiment [16] and in experiment [17] was > 100 µM (inactive) each time.
Take `CN(Cc1cnc2nc(N)nc(N)c2n1)c1ccc(C(=O)N[C@@H](CCS(=O)(=O)O)C(=O)O)cc1`: the GI50 was 0.562 µM (active) in [18]; 0.0514 µM in [1]; > 100 µM (inactive) in [19]; > 100 µM (inactive) in [3]; 0.225 µM (active) in [4]; > 100 µM (inactive) in [5]. The GI50 in [6] was 0.404 µM (active); in experiment [7], 0.541 µM (active); in experiment [8] it was 0.458 µM (active); in experiment [9] it was > 100 µM (inactive); in experiment [10], 0.169 µM (active); in experiment [11] it was 1.18 µM (inactive). Also, the GI50 in [12] was 0.151 µM (active); in experiment [14], 1.99 µM (inactive); in [15], > 100 µM (inactive); in experiment [16] it was > 100 µM (inactive); in experiment [17], 0.431 µM (active).
On to `CCCCCCCCCCCCCCCCOP(=O)(O)OP(=O)(O)OCC1OC(n2ccc(N)nc2=O)CC1O` (stereo unspecified), for which the GI50 is > 100 µM (inactive) in experiment [20]; above 100 µM in experiment [1]; > 100 µM (inactive) in [2]; > 100 µM (inactive) in experiment [19]; > 100 µM (inactive) in [3]; > 100 µM (inactive) in [4]. In addition, the GI50 in experiment [5], in [6], in experiment [7], in experiment [8], in experiment [9] and in experiment [10] was > 100 µM (inactive) throughout. Further, the GI50 in experiment [11], in [12], in [13], in experiment [14], in experiment [15] and in [16] was > 100 µM (inactive) in each case. Also, the GI50 in [17] is > 100 µM (inactive).
